These results are taken from the NIST ThermoML archive (doi:10.1016/j.fluid.2014.03.008).

± gives the expanded uncertainty stated by the source.

For series [1] the following is noted: Liquid; for mass density: 101.33 kPa, Vibrating tube method; for Normal boiling temperature: Ebulliometric method (Recirculating still).
Series [2] can be described thus: refractive index (Na D-line) (dimensionless). To be noted: 101.33 kPa, Liquid, Standard Abbe refractometry.

As a reminder, the mass density is the mass of a sample divided by its volume. Usually refractive index stands for a measure of how strongly the sample bends light. As for `CC(=O)c1ccccc1` [acetophenone], in series [1] (293.15 K), the mass density was 1027.9 ± 0.9 kg/m3. For the same compound, the Normal boiling temperature in series [1] was 202.0 ± 0.2 °C. Also, the refractive index in series [2] (293.15 K) amounted to 1.5361 ± 0.012.
As to `CCCC(=O)O` [butanoic acid], the mass density in series [1] (298.15 K) worked out at 952.6 ± 0.24 kg/m3. Besides, the Normal boiling temperature in series [1] is 163.7 ± 0.2 °C. The refractive index in series [2] (293.15 K) amounted to 1.3982 ± 0.012.
Consider `CCOC(=O)CC(=O)OCC` [diethyl 1,3-propanedioate], for which, in series [1] (293.15 K), the mass density worked out at 1055.25 ± 0.95 kg/m3. Also, the Normal boiling temperature in series [1] amounted to 199.90 ± 0.2 °C. The refractive index in series [2] (293.15 K) was 1.4135 ± 0.012.
As to `CCCC(=O)OCC` [ethyl butanoate], in series [1] (298.15 K), the mass density came out at 873.25 ± 0.7 kg/m3. The Normal boiling temperature in series [1] amounted to 121.40 ± 0.2 °C. Moreover, in series [2] (298.15 K), the refractive index is listed as 1.3891 ± 0.012.
Turning to `CCCCC(=O)OCC` [ethyl pentanoate], the mass density in series [1] (293.15 K) turned out to be 877.15 ± 0.24 kg/m3. Also, the Normal boiling temperature in series [1] amounted to 146.2 ± 0.2 °C. Besides, in series [2] (293.15 K), the refractive index was determined as 1.4125 ± 0.012.
Take `CCCCCCCCO` [octan-1-ol]: the mass density in series [1] (298.15 K) is reported as 825.95 ± 0.24 kg/m3. The Normal boiling temperature in series [1] amounted to 195.1 ± 0.2 °C. Further, the refractive index in series [2] (293.15 K) was determined as 1.428 ± 0.012.
Turning to `O` [water], the mass density in series [1] (293.15 K) was 999.7 ± 0.08 kg/m3. Further, the Normal boiling temperature in series [1] was 100.10 ± 0.2 °C. Also, the refractive index in series [2] (293.15 K) was found to be 1.3325 ± 0.012.
